How the values were obtained:
[1] = Adverse events and DLT, MRZ with TMZ and RT in newly diagnosed WHO Grade IV malignant glioma; assay type: in vivo, human
Protocol: The clinical trial was a dose-escalation study (Stage 1, MRZ+TMZ+RT or MRZ+TMZ) consisting of two arms—concomitant and adjuvant—in each, MRZ added to standard of care at increasing IV doses in a 3+3 design, and a dose expansion study at RP2D (Stage 2, RP2D MRZ+TMZ+RT followed by RP2D MRZ+TMZ) first with concomitant and then with adjuvant standard of care.
In the experimental Stage 1 Concomitant Treatment (MRZ+TMZ+RT) Drug MRZ dose ranges from 0.55 mg/m^2 to 1.0 mg/m^2 given IV over 10 minutes on days 1, 8, 15, 29, and 36 during concomitant treatment. MRZ dose ranges from 0.55 to 1.0 mg/m^2 given IV over 10 minutes on Days 1, 8, 15 every 28 days during adjuvant treatment. TMZ will be administered once daily, 7 days/week, for 6 weeks, starting on Day 1, at a dose of 75 mg/m^2 during concomitant treatment. TMZ will be administered once daily on days 1-5 every cycle (28 day cycles, up to 12 cycles), dose range 150 to 200 mg/m^2 during adjuvant treatment. Radiation (RT) will be administered once daily 5 days/week, for 30 doses over 6 weeks to a total dose of 60 Gy, staring on Day 1 during concomitant treatment. Patients who complete concomitant treatment may continue on to adjuvant treatment, in the adjuvant cohort RT and TMZ treatment is received outside of protocol therapy.
In the experimental Stage 2 dose expansion 18 additional evaluable patients were enrolled in a cohort in which concomitant treatment (MRZ+TMZ+RT) is followed by adjuvant treatment (MRZ+TMZ) to confirm the MTD for each treatment regime as determined in the dose-escalation (Stage 1), and to assess preliminary activity of the recommended Phase 2 dose (RP2D, 0.8 mg/m^2). Table 44 and Table 45 give the treatment parameters of the present study and demographics of study participants.
Methods: Patients enrolled in separate concomitant (TMZ+RT+MRZ at 0.55, 0.7, 0.8, and 1.0 mg/m^2 dose levels DL) and adjuvant (TMZ+MRZ) cohorts in 3+3 design, followed by dose-expansion at the RD (concomitant followed by adjuvant). MRZ (10 min IV infusion): Concomitant (42 days (D), on D1, 8, 15, 29, 36; Adjuvant (28D-cycle) on D1, 8, 15.
Outcome Measures: Primary Outcome Measures: (1) Determine MRZ maximum tolerated dose (MTD) and recommended phase 2 dose (RP2D) for both concomitant treatment (MRZ+TMZ+RT) and adjuvant treatment (MRZ+TMZ). Time Frame: 42-day concomitant treatment and 28-day Cycle 1 adjuvant treatment. Description: Assess dose-limiting toxicities (DLTs) in each dose-escalation arm.
Methods: Patients enrolled in separate concomitant (TMZ/RT+MRZ) and adjuvant (TMZ+MRZ) treatment cohorts in dose-escalation (3+3 design, MRZ at 0.55, 0.7, 0.8, and 1.0 mg/m^2), followed by dose-expansion at the RD in concomitant followed by adjuvant treatment. MRZ (10 min IV infusion): Concomitant Day 1, 8, 15, 29, 36; Adjuvant (28D-cycle) Day 1, 8, 15.

[2] = system: proteasome (CT-L, T-L and C-L activity); experiment: Blood proteasome inhibition (CT-L, T-L, C-L activity in packed whole blood and PBMC lysates); assay type: in vivo, human; details: for % C-L inhibition / % CT-L inhibition / % T-L inhibition: PWB, post-Marizomib infusion (peak effect)
Source text: The drugs were infused on 28-Day Cycles.
Change in proteasome activities in packed whole blood (PWB) lysates and peripheral blood mononuclear cell (PBMC) lysates, comparing pre-drug and post drug levels on Days 1, 8, and 15 of Cycle 1; Days 1 and 15 of each Cycle thereafter; and at the End-of Treatment Visit.
The laboratory correlates include assessment of the percentage inhibition of proteasome function (evaluated by measurement of CT-L, T-L and C-L activity in blood isolates such as whole blood and PBMC lysates.
PD analysis will include change in proteasome activities (whole blood lysates and PBMC lysates) by comparing pre-drug and post drug levels on Days 1, 8, and 15 (i.e., for each dose) of Cycle 1 and Days 1 and 15 (i.e., for the first and last doses) of each cycle thereafter.

[3] = Cohorts 1-3 0.55, 0.7, 0.8 mg/m^2 (21)
[4] = all grades, Cohort 2 0.7 mg/m^2 (9), concomitant and adjuvant combined
[5] = all grades, Cohort 3 0.8 mg/m^2 (6), concomitant and adjuvant combined
[6] = all grades, Cohort 4 1.0 mg/m^2 (12), concomitant and adjuvant combined
[7] = all grades, all dose-escalation cohorts 0.55-1.0 mg/m^2, N = 33, concomitant and adjuvant combined

With `C[C@@]12OC(=O)[C@]1([C@@H](O)[C@@H]1C=CCCC1)NC(=O)[C@@H]2CCCl` [MRZ, marizomib] the “Most common TEAEs (≥20% patients)” value ([1]; 33 patients, dose-escalation) was “fatigue, nausea, vomiting, hallucination, ataxia, headache”, the “Anorexia, Total # Patients with Grade 3 Event” value [1] was 0 and the “Ataxia, Total # Patients with Grade 3 Event” value [1] was 3. For the same compound, the “Confusion, Total # Patients with Grade 3 Event” value [1] was 2, the “Constipation, Total # Patients with Grade 3 Event” value [1] was 0 and the “Diarrhea, Total # Patients with Grade 3 Event” value [1] was 0. For the same compound, the “Dizziness, Total # Patients with Grade 3 Event” value [1] was 0, the “Fatigue, Total # Patients with Grade 3 Event” value [1] was 2 and the “Hallucination, Total # Patients with Grade 3 Event” value [1] was 0. The “Headache, Total # Patients with Grade 3 Event” value [1] was 2, the “Nausea, Total # Patients with Grade 3 Event” value [1] was 0 and the “Vomiting, Total # Patients with Grade 3 Event” value [1] was 0. The “Anorexia, Total # Patients with Grade 3 Event” value [1, 3] was 0, the “Ataxia, Total # Patients with Grade 3 Event” value [1, 3] was 1 and the “Confusion, Total # Patients with Grade 3 Event” value [1, 3] was 0. The “Constipation, Total # Patients with Grade 3 Event” value [1, 3] was 0, the “Diarrhea, Total # Patients with Grade 3 Event” value [1, 3] was 0 and the “Dizziness, Total # Patients with Grade 3 Event” value [1, 3] was 0. For the same compound, the “Fatigue, Total # Patients with Grade 3 Event” value [1, 3] was 5, the “Hallucination, Total # Patients with Grade 3 Event” value [1, 3] was 1 and the “Headache, Total # Patients with Grade 3 Event” value [1, 3] was 0. For the same compound, the “Nausea, Total # Patients with Grade 3 Event” value [1, 3] was 0, the “Vomiting, Total # Patients with Grade 3 Event” value [1, 3] was 1 and the “patients with at least one Grade ≥3 TEAE” value ([1]; MRZ 0.7 mg/m^2, of 9 (Example 6)) was 2. The “patients with Grade 3 TEAEs” value ([1]; MRZ 0.7 mg/m^2, of 9, as of Feb. 1, 2018) was 4, the “patients with at least one Grade ≥3 TEAE” value ([1]; MRZ 0.8 mg/m^2, of 6 (Example 6)) was 1 and the “patients with Grade 3 TEAEs” value ([1]; MRZ 0.8 mg/m^2, of 6, as of Feb. 1, 2018) was 2. The “patients with DLTs” value ([1]; MRZ 1.0 mg/m^2, concomitant and adjuvant) was 5/12, the “patients with at least one Grade ≥3 TEAE” value ([1]; MRZ 1.0 mg/m^2, of 12) was 11 and the tolerability ([1]; MRZ with SOC in ndGBM) was “well tolerated”. The “Anorexia, incidence of treatment-related adverse event” value (“Anorexia, incidence” for short) [1, 4] was 3, the “Ataxia, incidence of treatment-related adverse event” value (from here on “Ataxia, incidence”) [1, 4] was 1 and the “Confusion, incidence of treatment-related adverse event” value (“Confusion, incidence” below) [1, 4] was 4. The “Constipation, incidence of treatment-related adverse event” value (from here on “Constipation, incidence”) [1, 4] was 6, the “Diarrhea, incidence of treatment-related adverse event” value (from here on “Diarrhea, incidence”) [1, 4] was 2 and the “Dizziness, incidence of treatment-related adverse event” value (from here on “Dizziness, incidence”) [1, 4] was 2. For the same compound, the “Fatigue, incidence of treatment-related adverse event” value (shortened to “Fatigue, incidence”) [1, 4] was 8, the “Hallucination, incidence of treatment-related adverse event” value (from here on “Hallucination, incidence”) [1, 4] was 4 and the “Headache, incidence of treatment-related adverse event” value (shortened to “Headache, incidence”) [1, 4] was 3. For the same compound, the “Nausea, incidence of treatment-related adverse event” value (shortened to “Nausea, incidence”) [1, 4] was 4, the “Vomiting, incidence of treatment-related adverse event” value (“Vomiting, incidence” for short) [1, 4] was 4 and the “Anorexia, incidence” value [1, 5] was 2. For the same compound, the “Ataxia, incidence” value [1, 5] was 1, the “Confusion, incidence” value [1, 5] was 1 and the “Constipation, incidence” value [1, 5] was 2. For the same compound, the “Diarrhea, incidence” value [1, 5] was 2, the “Dizziness, incidence” value [1, 5] was 1 and the “Fatigue, incidence” value [1, 5] was 5. For the same compound, the “Hallucination, incidence” value [1, 5] was 2, the “Headache, incidence” value [1, 5] was 2 and the “Nausea, incidence” value [1, 5] was 5. For the same compound, the “Vomiting, incidence” value [1, 5] was 4, the “Anorexia, incidence” value [1, 6] was 1 and the “Ataxia, incidence” value [1, 6] was 4. The “Confusion, incidence” value [1, 6] was 3, the “Constipation, incidence” value [1, 6] was 4 and the “Diarrhea, incidence” value [1, 6] was 1. The “Dizziness, incidence” value [1, 6] was 1, the “Fatigue, incidence” value [1, 6] was 8 and the “Hallucination, incidence” value [1, 6] was 4. For the same compound, the “Headache, incidence” value [1, 6] was 4, the “Nausea, incidence” value [1, 6] was 5 and the “Vomiting, incidence” value [1, 6] was 4. The “Anorexia, treatment-related adverse event, total in parentheses” value [1, 7] was “Anorexia (8)”, the “Ataxia, treatment-related adverse event, total in parentheses” value [1, 7] was “Ataxia (8)” and the “Confusion, treatment-related adverse event, total in parentheses” value [1, 7] was “Confusion (9)”. The “Constipation, treatment-related adverse event, total in parentheses” value [1, 7] was “Constipation (11)”, the “Diarrhea, treatment-related adverse event, total in parentheses” value [1, 7] was “Diarrhea (7)” and the “Dizziness, treatment-related adverse event, total in parentheses” value [1, 7] was “Dizziness (6)”. For the same compound, the “Fatigue, treatment-related adverse event, total in parentheses” value [1, 7] was “Fatigue (26)”, the “Hallucination, treatment-related adverse event, total in parentheses” value [1, 7] was “Hallucination (11)” and the “Headache, treatment-related adverse event, total in parentheses” value [1, 7] was “Headache (10)”. The “Nausea, treatment-related adverse event, total in parentheses” value [1, 7] was “Nausea (17)”, the “Vomiting, treatment-related adverse event, total in parentheses” value [1, 7] was “Vomiting (12)” and the “RP2D / recommended dose (RD) of MRZ” value ([1]; with TMZ and RT (SOC), ndGBM) was 0.8 mg/m^2. The “% C-L inhibition” value ([2]; 0.7 mg/m^2) was 50.4 ± 9.1 (3) %, the “% CT-L inhibition” value ([2]; 0.7 mg/m^2) was 100 ± 0 (3) % and the “% T-L inhibition” value ([2]; 0.7 mg/m^2) was 77.3 ± 10.5 (3) %. The “% C-L inhibition” value ([2]; 0.8 mg/m^2) was 51.9 ± 8.3 (3) %, the “% CT-L inhibition” value ([2]; 0.8 mg/m^2) was 100 ± 0 (3) % and the “% T-L inhibition” value ([2]; 0.8 mg/m^2) was 69.3 ± 7.2 (3) %. The “Proteasome inhibition on chymotrypsin-like (CT-L) domains” value ([2]; cohorts 1 and 2) was “maximal” and the “trypsin-like (T-L) and caspase-like (C-L) activity” value ([2]; cohorts 1 vs 2) was “Dose-dependent inhibition”.

— US20200085789A1, “USE OF A PROTEASOME INHIBITOR FOR THE TREATMENT OF CENTRAL NERVOUS SYSTEM (CNS) CANCERS” (Celgene International II Sàrl, priority 2017, published 2020)
